Holding throughout (assay): MIC by agar plate dilution method on standard strains (Example 3)
Holding throughout (type): cell-based
Common to all, as to conditions: read-out: MIC

Experiment [1] deals with Staphylococcus epidermidis ATCC29886. The procedure: (§1) Minimum growth-inhibiting concentrations of trifluoromethionine and other antibacterial drugs on standard strains were determined by an agar plate dilution method according to the standard method of Japanese Society of Chemotherapy.
(§2) Drug solutions at a concentration 10 times as high as the maximum applicable concentration were prepared as original solutions of test drugs given in Table 2 (as to solvents used for this purpose, reference should be made also to Table 2). Serial two-fold dilution series of the original solutions were prepared at desired stages, and 1 ml each of the diluted drug solutions was added to 9 ml of media given in Table 3 to prepare drug plates. Concentration range of the individual drugs used are as follows: trifluoromethionine: 400-0.025 μg/ml (15 stages), tetracycline: 100-0.025 μg/ml (13 stages), and clarithromycin: 100-0.025 μg/ml (13 stages).
(§3) • 1) Bacterial solutions stocked at −80° C. were inoculated on agar media (as to media used, reference should be made to Table 3), and then incubated at 37° C. overnight. When desired, subculturing was conducted once more on the same agar media (by overnight incubation at 37° C.). • 2) Colonies growing on the agar media were sampled by a platinum loop, suspended in liquid media (reference should be made to Table 3) and statically incubated at 37° C. for 18 hours (preculturing). • 3) Preculturing was continued up to McFarland 0.5 (McFarland 0.5=about 10^8 CFU/ml), and then the culture broths were diluted with Muellar Hinton Broth to make 10^6 CFU/ml. 5 μl each of the diluted solutions were inoculated on the above-mentioned drug plates by an inoculator Microplanter.
(§4) Thus, bacterial solutions at about 10^8 CFU/ml can be easily prepared by use of McFarland 0.5. Bacterial solutions at such a turbidity are commercially available, but can be easily prepared. McFarland 0.5 can be obtained by adding 0.5 ml of an aqueous 0.048 mol/l barium chloride solution to 99.5 ml of 1% v/v (0.18 mol/l) sulfuric acid. • 4) The individual bacteria were incubated at 37° C. for 18-20 hours and then the growth was determined in the same manner as in Example 2 to obtain minimum growth-inhibiting concentrations.

In experiment [2] the test system is Staphylococcus epidermidis ATCC12228. The procedure:
as §1, §2, §3, §4

The test system of experiment [3] is Haemophilus influenzae ATCC49247. The procedure:
as §3, with “Drug solutions at a concentration 10 times as high as the maximum applicable concentration were prepared as original solutions of test drugs given in Table 2 (as to solvents used for this purpose, reference should be made also to Table 2). Serial two-fold dilution series of the original solutions were prepared at desired stages, and 1 ml each of the diluted drug solutions was added to 9 ml of media given in Table 3 to prepare drug plates. […] • 1)” for “• 1)”, “inoculator Microplanter. […] Thus, bacterial solutions at about 10^8 CFU/ml can be easily prepared by use of McFarland 0.5. Bacterial solutions at such a turbidity are commercially available, but can be easily prepared.” for “inoculator Microplanter.”

Experiment [4] has as its system Streptococcus agalactiae ATCC13813. The procedure:
as §3, with “Drug solutions at a concentration 10 times as high as the maximum applicable concentration were prepared as original solutions of test drugs given in Table 2 (as to solvents used for this purpose, reference should be made also to Table 2). Serial two-fold dilution series of the original solutions were prepared at desired stages, and 1 ml each of the diluted drug solutions was added to 9 ml of media given in Table 3 to prepare drug plates. […] • 1)” for “• 1)”, “inoculator Microplanter. […] Thus, bacterial solutions at about 10^8 CFU/ml can be easily prepared by use of McFarland 0.5. Bacterial solutions at such a turbidity are commercially available, but can be easily prepared.” for “inoculator Microplanter.”

Experiment [5] relates to Streptococcus pneumoniae ATCC6302. The procedure:
as §3, with “Drug solutions at a concentration 10 times as high as the maximum applicable concentration were prepared as original solutions of test drugs given in Table 2 (as to solvents used for this purpose, reference should be made also to Table 2). Serial two-fold dilution series of the original solutions were prepared at desired stages, and 1 ml each of the diluted drug solutions was added to 9 ml of media given in Table 3 to prepare drug plates. […] • 1)” for “• 1)”, “inoculator Microplanter. […] Thus, bacterial solutions at about 10^8 CFU/ml can be easily prepared by use of McFarland 0.5. Bacterial solutions at such a turbidity are commercially available, but can be easily prepared.” for “inoculator Microplanter.”

The test system of experiment [6] is Serratia marcescens ATCC13880. The procedure: as §3, with “Drug solutions at a concentration 10 times as high as the maximum applicable concentration were prepared as original solutions of test drugs given in Table 2 (as to solvents used for this purpose, reference should be made also to Table 2). Serial two-fold dilution series of the original solutions were prepared at desired stages, and 1 ml each of the diluted drug solutions was added to 9 ml of media given in Table 3 to prepare drug plates. […] • 1)” for “• 1)”, “inoculator Microplanter. […] Thus, bacterial solutions at about 10^8 CFU/ml can be easily prepared by use of McFarland 0.5. Bacterial solutions at such a turbidity are commercially available, but can be easily prepared.” for “inoculator Microplanter.”

Experiment [7] has as its system Staphylococcus aureus ATCC29247. The protocol: as §3, with “Drug solutions at a concentration 10 times as high as the maximum applicable concentration were prepared as original solutions of test drugs given in Table 2 (as to solvents used for this purpose, reference should be made also to Table 2). Serial two-fold dilution series of the original solutions were prepared at desired stages, and 1 ml each of the diluted drug solutions was added to 9 ml of media given in Table 3 to prepare drug plates. […] • 1)” for “• 1)”, “inoculator Microplanter. […] Thus, bacterial solutions at about 10^8 CFU/ml can be easily prepared by use of McFarland 0.5. Bacterial solutions at such a turbidity are commercially available, but can be easily prepared.” for “inoculator Microplanter.”

In experiment [8] the test system is Streptococcus pyogenes ATCC12353. The procedure: as §3, with “Drug solutions at a concentration 10 times as high as the maximum applicable concentration were prepared as original solutions of test drugs given in Table 2 (as to solvents used for this purpose, reference should be made also to Table 2). Serial two-fold dilution series of the original solutions were prepared at desired stages, and 1 ml each of the diluted drug solutions was added to 9 ml of media given in Table 3 to prepare drug plates. […] • 1)” for “• 1)”, “inoculator Microplanter. […] Thus, bacterial solutions at about 10^8 CFU/ml can be easily prepared by use of McFarland 0.5. Bacterial solutions at such a turbidity are commercially available, but can be easily prepared.” for “inoculator Microplanter.”

Experiment [9] concerns Haemophilus influenzae ATCC33391. The protocol: as §3, with “Drug solutions at a concentration 10 times as high as the maximum applicable concentration were prepared as original solutions of test drugs given in Table 2 (as to solvents used for this purpose, reference should be made also to Table 2). Serial two-fold dilution series of the original solutions were prepared at desired stages, and 1 ml each of the diluted drug solutions was added to 9 ml of media given in Table 3 to prepare drug plates. […] • 1)” for “• 1)”, “inoculator Microplanter. […] Thus, bacterial solutions at about 10^8 CFU/ml can be easily prepared by use of McFarland 0.5. Bacterial solutions at such a turbidity are commercially available, but can be easily prepared.” for “inoculator Microplanter.”

Experiment [10] has as its system Streptococcus pneumoniae ATCC6301. The procedure:
as §3, with “Drug solutions at a concentration 10 times as high as the maximum applicable concentration were prepared as original solutions of test drugs given in Table 2 (as to solvents used for this purpose, reference should be made also to Table 2). Serial two-fold dilution series of the original solutions were prepared at desired stages, and 1 ml each of the diluted drug solutions was added to 9 ml of media given in Table 3 to prepare drug plates. […] • 1)” for “• 1)”, “inoculator Microplanter. […] Thus, bacterial solutions at about 10^8 CFU/ml can be easily prepared by use of McFarland 0.5. Bacterial solutions at such a turbidity are commercially available, but can be easily prepared.” for “inoculator Microplanter.”

Experiment [11] relates to Pseudomonas aeruginosa ATCC27853. The procedure:
as §3, with “Drug solutions at a concentration 10 times as high as the maximum applicable concentration were prepared as original solutions of test drugs given in Table 2 (as to solvents used for this purpose, reference should be made also to Table 2). Serial two-fold dilution series of the original solutions were prepared at desired stages, and 1 ml each of the diluted drug solutions was added to 9 ml of media given in Table 3 to prepare drug plates. […] • 1)” for “• 1)”, “inoculator Microplanter. […] Thus, bacterial solutions at about 10^8 CFU/ml can be easily prepared by use of McFarland 0.5. Bacterial solutions at such a turbidity are commercially available, but can be easily prepared.” for “inoculator Microplanter.”

In experiment [12] the test system is Haemophilus influenzae ATCC49766. The procedure: as §3, with “Drug solutions at a concentration 10 times as high as the maximum applicable concentration were prepared as original solutions of test drugs given in Table 2 (as to solvents used for this purpose, reference should be made also to Table 2). Serial two-fold dilution series of the original solutions were prepared at desired stages, and 1 ml each of the diluted drug solutions was added to 9 ml of media given in Table 3 to prepare drug plates. […] • 1)” for “• 1)”, “inoculator Microplanter. […] Thus, bacterial solutions at about 10^8 CFU/ml can be easily prepared by use of McFarland 0.5. Bacterial solutions at such a turbidity are commercially available, but can be easily prepared.” for “inoculator Microplanter.”

Experiment [13] has as its system Escherichia coli ATCC25922. The procedure: as §3, with “Drug solutions at a concentration 10 times as high as the maximum applicable concentration were prepared as original solutions of test drugs given in Table 2 (as to solvents used for this purpose, reference should be made also to Table 2). Serial two-fold dilution series of the original solutions were prepared at desired stages, and 1 ml each of the diluted drug solutions was added to 9 ml of media given in Table 3 to prepare drug plates. […] • 1)” for “• 1)”, “inoculator Microplanter. […] Thus, bacterial solutions at about 10^8 CFU/ml can be easily prepared by use of McFarland 0.5. Bacterial solutions at such a turbidity are commercially available, but can be easily prepared.” for “inoculator Microplanter.”

For experiment [14], the system named is Micrococcus luteus ATCC9341. The procedure:
as §3, with “Drug solutions at a concentration 10 times as high as the maximum applicable concentration were prepared as original solutions of test drugs given in Table 2 (as to solvents used for this purpose, reference should be made also to Table 2). Serial two-fold dilution series of the original solutions were prepared at desired stages, and 1 ml each of the diluted drug solutions was added to 9 ml of media given in Table 3 to prepare drug plates. […] • 1)” for “• 1)”, “inoculator Microplanter. […] Thus, bacterial solutions at about 10^8 CFU/ml can be easily prepared by use of McFarland 0.5. Bacterial solutions at such a turbidity are commercially available, but can be easily prepared.” for “inoculator Microplanter.”

≈ marks a conversion by molar mass, not a printed value.

For `CC[C@H]1OC(=O)[C@H](C)[C@@H](O[C@H]2C[C@@](C)(OC)[C@@H](O)[C@H](C)O2)[C@H](C)[C@@H](O[C@@H]2O[C@H](C)C[C@H](N(C)C)[C@H]2O)[C@](C)(OC)C[C@@H](C)C(=O)[C@H](C)[C@@H](O)[C@]1(C)O` [CAM, Clarithromycin], the MIC in experiment [1] is 0.39 µg/mL (≈ 0.521 µM); in experiment [2], 0.2 µg/mL (≈ 0.267 µM); in [3], 6.25 µg/mL (≈ 8.36 µM); in experiment [4], 0.05 µg/mL (≈ 0.0668 µM); in experiment [5], 0.1 µg/mL (≈ 0.134 µM); in [6] it was greater than 100 µg/mL. Besides, the MIC in experiment [7] was 50 µg/mL (≈ 66.8 µM); in [8], 0.1 µg/mL (≈ 0.134 µM); in experiment [9] it was 6.25 µg/mL (≈ 8.36 µM); in experiment [10], 0.05 µg/mL (≈ 0.0668 µM); in experiment [11], greater than 100 µg/mL; in experiment [12], 6.25 µg/mL (≈ 8.36 µM). The MIC in experiment [13] came to 50 µg/mL (≈ 66.8 µM); in experiment [14], 0.05 µg/mL (≈ 0.0668 µM).

Values taken from patent US20050175550A1, “Compositions for oral use” (priority 2000, published 2005).
